Results published in patent publication US20040106216A1, “Method of measuring drug-metabolizing enzyme activity, method of evaluating inhibition of drug-metabolizing enzyme activity, and composition for these methods” (Toyo Boseki Kabushiki Kaisha, priority 2002, published 2004).
Positions count from the first letter of the chain named.

Legend:
[1] = test system: Pseudomonas-derived 17β-hydroxysteroid dehydrogenase; test: Inhibition of 17β-hydroxysteroid dehydrogenase, estrone substrate, estradiol enzyme immunoassay; format: biochemical; conditions: 0-20 μM final concentration, FIG. 8
[2] = molecular target: human cytochrome P450 CYP2C9 (359Leu) (Homo sapiens, UniProt P11712, I359L); conditions: 30 μM dibenzylfluorescein; 0-1.2 μM final concentration; FIG. 20
Procedure: (§1) Purified anti-fluorescein antibodies obtained using as the antigen a protein cross-linked using the X position of fluorescein were diluted with 50 mM carbonic acid buffer (pH 9.6) to a concentration of 1 μg/ml (antibody adsorption liquid), and 100 μL per well was poured into Corning Costar microtiter plates (polystyrene 96-well type). The surfaces were then sealed, and the plates left overnight at 4° C. The following day the antibody adsorption liquid was removed, and each well washed 3 times with 200 μL of 10 mM phosphoric acid buffer (pH 7.2, containing 150 mM NaCl). After washing, using 10 mM phosphoric acid buffer (pH 7.2, containing 150 mM NaCl: phosphoric acid buffer 1) as the base, each well was filled with 200 μL of a blocking solution containing 0.2% casein and 10% sucrose. After being filled with the blocking liquid the plates were left overnight at 4° C., and the following day the blocking liquid was removed and vacuum drying applied for 16 hours. The vacuum-dried plates were sealed in storage bags under reduced pressure, and stored at 4° C. prior to the following measurements.
(§2) A system expressing human cytochrome P450 CYP2C9 was constructed according to the methods of Goldstein et al (Goldstein J. A. et al, Biochemistry Vol. 33 pp 1743-1752 (1994)). A single nucleotide mutation (A→C) replacing isoleucine at 359 position with leucine was then introduced by ordinary methods. Two types of enzyme preparations, human cytochrome P450 CYP2C9 (359Ile) and (359Leu), were prepared by methods described in the literature and used in the following experiment.
(§3) The two human cytochrome P450 CYP2C9 preparations were diluted with 100 mM phosphoric acid buffer (pH 7.2, containing 0.1% BSA: phosphoric acid buffer 2), and concentrations sequences prepared. […]

[3] = molecular target: human cytochrome P450 CYP2C9 (359Ile) (Homo sapiens, UniProt P11712)
Procedure: as §1, §2, §3

[4] = molecular target: T1, human cytochrome P450 CYP19 (Homo sapiens, UniProt P11511); test: Inhibition of human cytochrome P450 CYP19 (aromatase), testosterone substrate, estradiol enzyme immunoassay; format: biochemical; conditions: 62.5 μM testosterone, 20 minutes at 37° C.; α-naphthoflavone 0-3.2 μM, aminoglutethimide 0-9 μM final concentration; FIG. 6, 7
T1 construct: purchased BD Science (Gentest)
T1 sequence (P11511 1-503): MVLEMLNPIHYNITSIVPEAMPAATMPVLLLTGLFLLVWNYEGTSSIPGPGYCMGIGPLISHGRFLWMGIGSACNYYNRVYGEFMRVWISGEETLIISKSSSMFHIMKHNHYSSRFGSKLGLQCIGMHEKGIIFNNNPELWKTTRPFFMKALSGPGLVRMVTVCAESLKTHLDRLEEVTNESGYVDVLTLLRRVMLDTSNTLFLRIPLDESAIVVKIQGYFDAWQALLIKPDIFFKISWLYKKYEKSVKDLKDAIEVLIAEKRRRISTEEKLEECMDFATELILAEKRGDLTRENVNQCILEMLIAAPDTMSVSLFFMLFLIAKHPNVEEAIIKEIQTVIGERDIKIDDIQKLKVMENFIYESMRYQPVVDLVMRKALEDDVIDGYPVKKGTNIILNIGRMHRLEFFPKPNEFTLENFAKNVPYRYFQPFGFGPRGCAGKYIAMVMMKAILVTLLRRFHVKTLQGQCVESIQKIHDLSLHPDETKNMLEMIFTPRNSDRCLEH
Procedure: as §1, with “The” for “Purified anti-fluorescein antibodies obtained using as the antigen a protein cross-linked using the X position of fluorescein were diluted with 50 mM carbonic acid buffer (pH 9.6) to a concentration of 1 μg/ml (antibody adsorption liquid), and 100 μL per well was poured into Corning Costar microtiter plates (polystyrene 96-well type). The”

[5] = molecular target: T2, pig cytochrome P450 CYP19 (133Ile) (Sus scrofa, UniProt P79430); test: Inhibition of pig cytochrome P450 CYP19 (133Ile), testosterone substrate, estradiol enzyme immunoassay; format: biochemical
T2 construct: made in house
T2 sequence (P79430 1-503): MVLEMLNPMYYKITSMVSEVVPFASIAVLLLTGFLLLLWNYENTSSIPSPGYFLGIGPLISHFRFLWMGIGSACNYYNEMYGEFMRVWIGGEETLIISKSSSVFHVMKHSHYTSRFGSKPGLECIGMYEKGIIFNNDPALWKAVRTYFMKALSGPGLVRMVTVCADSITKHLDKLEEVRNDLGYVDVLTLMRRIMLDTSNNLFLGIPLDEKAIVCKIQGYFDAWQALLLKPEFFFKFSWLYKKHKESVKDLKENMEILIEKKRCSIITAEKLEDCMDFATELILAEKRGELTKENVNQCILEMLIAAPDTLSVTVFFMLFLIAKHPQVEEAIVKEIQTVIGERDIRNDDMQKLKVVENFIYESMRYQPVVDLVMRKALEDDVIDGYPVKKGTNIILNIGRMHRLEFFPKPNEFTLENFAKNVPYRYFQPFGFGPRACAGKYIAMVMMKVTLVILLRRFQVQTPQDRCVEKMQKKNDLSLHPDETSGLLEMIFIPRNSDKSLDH
Procedure: as §1, with “Purified anti-estradiol” for “Purified anti-fluorescein”, “the 3rd” for “the X”, “of estradiol” for “of fluorescein”, “diluted in” for “diluted with”, “10% saccharose.” for “10% sucrose.”
(§4) A placental system expressing pig cytochrome P450 CYP19 was prepared according to the methods described in Mol. Endocrinol. Vol. 16, pp 1456-1468 (2002), and a mutation introduced replacing isoleucine 133 with methionine or alanine according to ordinary methods. […]

[6] = molecular target: T3, pig cytochrome P450 CYP19 (133Met) (Sus scrofa, UniProt P79430, I133M); test: Inhibition of pig cytochrome P450 CYP19 (133Met), testosterone substrate, estradiol enzyme immunoassay; format: biochemical; conditions: 62.5 μM testosterone; 0-3.2 μM final concentration; FIG. 16
T3 construct: made in house
T3 sequence (P79430 1-503 I133M): T2 sequence (P79430 1-503) with I133M
Procedure: as §1, with “Purified anti-estradiol” for “Purified anti-fluorescein”, “the 3rd” for “the X”, “of estradiol” for “of fluorescein”, “diluted in” for “diluted with”, “10% saccharose.” for “10% sucrose.”
as §4

Sequence of human cytochrome P450 CYP2C9 (359Ile) (P11712 whole entry): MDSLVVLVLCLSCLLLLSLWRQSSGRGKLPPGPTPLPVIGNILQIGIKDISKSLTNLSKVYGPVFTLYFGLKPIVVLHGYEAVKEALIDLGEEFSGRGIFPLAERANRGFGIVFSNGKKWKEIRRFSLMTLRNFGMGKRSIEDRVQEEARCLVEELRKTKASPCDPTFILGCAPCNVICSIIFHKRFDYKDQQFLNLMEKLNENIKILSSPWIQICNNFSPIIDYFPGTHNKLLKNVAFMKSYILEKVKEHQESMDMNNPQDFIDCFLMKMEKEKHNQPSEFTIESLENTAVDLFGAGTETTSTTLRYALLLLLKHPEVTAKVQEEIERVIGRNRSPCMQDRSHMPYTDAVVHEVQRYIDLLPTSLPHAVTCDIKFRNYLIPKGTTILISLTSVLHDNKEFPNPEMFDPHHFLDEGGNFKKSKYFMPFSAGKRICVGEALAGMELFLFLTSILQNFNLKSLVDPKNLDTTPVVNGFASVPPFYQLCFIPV
Sequence of human cytochrome P450 CYP2C9 (359Leu) (P11712 whole entry I359L): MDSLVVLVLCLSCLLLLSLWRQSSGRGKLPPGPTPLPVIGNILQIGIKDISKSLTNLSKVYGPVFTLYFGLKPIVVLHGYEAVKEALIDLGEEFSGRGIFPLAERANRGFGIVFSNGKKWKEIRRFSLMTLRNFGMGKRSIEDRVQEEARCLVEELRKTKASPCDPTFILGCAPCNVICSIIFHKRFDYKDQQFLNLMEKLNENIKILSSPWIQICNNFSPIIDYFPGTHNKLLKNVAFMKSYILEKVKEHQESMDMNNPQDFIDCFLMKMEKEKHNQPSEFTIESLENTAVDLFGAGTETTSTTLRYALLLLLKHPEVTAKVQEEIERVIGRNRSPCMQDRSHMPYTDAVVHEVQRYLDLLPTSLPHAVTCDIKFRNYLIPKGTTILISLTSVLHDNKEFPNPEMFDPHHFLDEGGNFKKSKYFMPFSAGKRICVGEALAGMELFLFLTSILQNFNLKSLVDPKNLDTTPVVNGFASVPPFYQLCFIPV

Q: With `O=c1c(-c2ccc(O)cc2)coc2cc(O)cc(O)c12` [genistein] as the compound, how does the “inhibition of 17β-hydroxysteroid dehydrogenase (relationship between solution concentration and absorbance at 450 nm)” value [1] read?
A: the stronger the inhibition of 17β-hydroxysteroid dehydrogenase

Q: Which results are given for `Nc1ccc(S(=O)(=O)Nc2ccnn2-c2ccccc2)cc1` [sulfaphenazole]?
A: inhibition of human cytochrome P450 CYP2C9 (359Leu) (concentration vs absorbance at 450 nm) [2]: the greater the inhibition of the two types of human cytochrome P450 CYP2C9; inhibition of human cytochrome P450 CYP2C9 (359Ile) (concentration vs absorbance at 450 nm) ([3]; 30 μM dibenzylfluorescein, 0-1.2 μM final concentration, FIG. 19): the greater the inhibition of the two types of human cytochrome P450 CYP2C9; difference between inhibition-dose curves of the two enzyme preparations ([3]; human CYP2C9 (359Ile) versus (359Leu), FIGS. 19 and 20): obvious differences between the sulfaphenazole inhibition-dose curves

Q: Which “inhibition of cytochrome P450 CYP19 (relationship between solution concentration and absorbance at 450 nm)” value [4] does the source give for `O=c1cc(-c2ccccc2)oc2c1ccc1ccccc12` [α-naphthoflavone] here?
A: the greater the inhibition of cytochrome P450 CYP19

Q: What about the “inhibition of pig cytochrome P450 CYP19 (133Ile) (concentration vs absorbance at 450 nm)” value ([5]; 62.5 μM testosterone, 0-3.2 μM final concentration, FIG. 15) of the same compound?
A: the greater the inhibition of pig cytochrome P450 CYP19

Q: What about the “difference in degree of inhibition between preparation (133Ile) and preparation (133Met)” value ([5]; pig CYP19 (133Ile) versus (133Met), FIGS. 15 and 16) of the same compound?
A: the degree of inhibition differed greatly

Q: What about the “inhibition of pig cytochrome P450 CYP19 (133Met) (concentration vs absorbance at 450 nm)” value [6] of the same compound?
A: the greater the inhibition of pig cytochrome P450 CYP19
